In US20210221866A1, “PROTEASE-RESISTANT LIPIDATED GLP-1 ANALOGS” (MEDIMMUNE LIMITED, priority 2015, published 2021):
Like-named read-outs stand apart in the source and are kept apart here. Numbered stars: 1 amine (or outer) side, 2 acyl side, 3 side chain; on linkers, the order of the positions; unused ones are H or OH. Square brackets hold non-standard residues; d marks the D form. Side chains are listed from the residue outwards. Peptide text beside a SMILES is read from it. * marks the point of attachment. γGlu = O=C(O)[C@H](CCC(=O)[*:2])N[*:1]; αMeF = C[C@](N)(Cc1ccccc1)C(=O)O; αMeK = C[C@](N)(CCCCN)C(=O)O; Lauroyl = CCCCCCCCCCCC(=O)*; αMeS = C[C@](N)(CO)C(=O)O; Nle = CCCC[C@H](N)C(=O)O; AEEA = NCCOCCOCC(=O)O; Aib = CC(C)(N)C(=O)O

Assays:
[1] = molecular target: T1, recombinant Neprilysin (Homo sapiens, UniProt P08473); experiment: Proteolytic resistance to neprilysin (% remaining peptide, RP-HPLC AUC); type: in vitro ADME; conditions: t = 0 (baseline); 37° C., pH 8.3; enzyme:peptide ~1:33 for non-lipidated, ~1:2.5 for lipidated peptides
T1 construct: purchased R&D Systems 1182-ZNC-010
Method: Ratio enzyme (units):peptide (moles) ˜1:33. […] Ratio enzyme (units):peptide (moles) ˜1:2.5.
15 μL aliquots (˜15 ng initial peptide) of the peptide-enzyme mixture were periodically withdrawn (t=0, 30 mins, 1 hr, 2 hr, 4 hr, 8 hr, 24 hr) and quenched immediately by addition to an equal volume (15 μL) of 5% TFA (v/v) in 1:1 water/acetonitrile to arrest proteolytic activity. 20 μL aliquots (˜10 ng initial peptide) were analyzed by LC/MS and/or analytical RP-HPLC as follows: LC/MS method: Agilent Polaris C8-A column (4.6×100 mm, 3 micron) eluted with a linear binary gradient of 10-90% MeCN (0.1% TFA v/v) in water (0.1% TFA v/v) over 30 mins at 1.5 mL min-1 at ambient temperature with detection by both UV absorption at 210 nm and ionization using a Waters 3100 mass detector (ESI+ mode). Peptide fragments deriving from enzymatic hydrolysis were identified by molecular weight, allowing location of the site of cleavage. Analytical RP-HPLC method: Agilent Polaris C8-A column (4.6×100 mm, 3 micron) eluted with a linear binary gradient of 10-90% MeCN (0.1% TFA v/v) in water (0.1% TFA v/v) over either 10 or 15 mins at 1.5 mL min^−1 at 40° C. with detection by UV absorption at 210 nm. Manual integration (AUC) allowed estimation of remaining intact peptide over the time course of the experiment.
25 μL aliquots (˜6 μg initial peptide) were analyzed by LC/MS and/or analytical RP-HPLC as follows: LC/MS method: Agilent Polaris C8-A column (4.6×100 mm, 3 micron) eluted with a linear binary gradient of 10-90% MeCN (0.1% TFA v/v) in water (0.1% TFA v/v) over 30 mins at 1.5 mL min^−1 at ambient temperature with detection by both UV absorption at 210 nm and ionization using a Waters 3100 mass detector (ESI^+ mode). Peptide fragments deriving from enzymatic hydrolysis were identified by molecular weight, allowing location of the site of cleavage. Analytical RP-HPLC method: Agilent Polaris C8-A column (4.6×100 mm, 3 micron) eluted with a linear binary gradient of 10-90% MeCN (0.1% TFA v/v) in water (0.1% TFA v/v) over either 10 or 15 mins at 1.5 mL min^−1 at 40° C. with detection by UV absorption at 210 nm. Manual integration (AUC) allowed estimation of remaining intact peptide over the time course of the experiment.

[2] = molecular target: porcine pancreatic trypsin (Sus scrofa, UniProt P00761); experiment: Proteolytic resistance to trypsin (% remaining intact peptide, RP-HPLC AUC); type: in vitro ADME; conditions: t = 0; 37° C., pH 7.8
[3] = molecular target: T2, porcine pancreatic pepsin (Sus scrofa, UniProt P00791); experiment: Proteolytic resistance to pepsin (% remaining intact peptide, RP-HPLC AUC); type: in vitro ADME; conditions: t = 0; 37° C., pH 2.0
T2 construct: purchased Sigma P7012
Method: Pepsin: Lyophilized porcine pancreatic pepsin (Sigma: P7012) was reconstituted to afford a solution of 200 μg/mL (˜500 units/mL) in assay buffer (0.1 M HCl, pH 2.0) to give the enzyme stock solution. […] Ratio enzyme (units):peptide (moles) ˜1:6. […] Ratio enzyme (units):peptide (μmoles) ˜2:1.
Lyophilized porcine pancreatic pepsin (Sigma: P7012) was reconstituted to […] (˜500 units/mL) in assay buffer ([…], pH 2.0) to give the enzyme stock solution.

[4] = Proteolytic resistance to α-chymotrypsin (% remaining intact peptide, RP-HPLC AUC); conditions: recombinant α-chymotrypsin in assay buffer, pH 7.8
Method: (§3) Ratio enzyme (units):peptide (μmoles) ˜1:33. […] Ratio enzyme (units):peptide (μmoles) ˜1:2.5.
(§4) 15 μL aliquots (˜15 μg initial peptide) of the peptide-enzyme mixture are periodically withdrawn (t=0, 30 mins, 1 hr, 2 hr, 4 hr, 8 hr, 24 hr) and quenched immediately by addition to an equal volume (15 μL) of 5% TFA (v/v) in 1:1 water/acetonitrile to arrest proteolytic activity. 20 μL aliquots (˜10 μg initial peptide) are analysed by LC/MS and/or analytical RP-HPLC as follows: LC/MS method: Agilent Polaris C8-A column (4.6×100 mm, 3 micron) elutes with a linear binary gradient of 10-90% MeCN (0.1% TFA v/v) in water (0.1% TFA v/v) over 30 mins at 1.5 mL min^−1 at ambient temperature with detection by both UV absorption at 210 nm and ionization using a Waters 3100 mass detector (ESI^+ mode). Peptide fragments deriving from enzymatic hydrolysis are identified by molecular weight, allowing location of the site of cleavage. Analytical RP-HPLC method: Agilent Polaris C8-A column (4.6×100 mm, 3 micron) elutes with a linear binary gradient of 10-90% MeCN (0.1% TFA v/v) in water (0.1% TFA v/v) over either 10 or 15 mins at 1.5 mL min^−1 at 40° C. with detection by UV absorption at 210 nm. Manual integration (AUC) allows estimation of remaining intact peptide over the time course of the experiment.
(§5) 25 μL aliquots (˜6 μg initial peptide) are analysed by LC/MS and/or analytical RP-HPLC as follows: LC/MS method: Agilent Polaris C8-A column (4.6×100 mm, 3 micron) elutes with a linear binary gradient of 10-90% MeCN (0.1% TFA v/v) in water (0.1% TFA v/v) over 30 mins at 1.5 mL min^−1 at ambient temperature with detection by both UV absorption at 210 nm and ionization using a Waters 3100 mass detector (ESI±mode). Peptide fragments deriving from enzymatic hydrolysis are identified by molecular weight, allowing location of the site of cleavage. Analytical RP-HPLC method: Agilent Polaris C8-A column (4.6×100 mm, 3 micron) elutes with a linear binary gradient of 10-90% MeCN (0.1% TFA v/v) in water (0.1% TFA v/v) over either 10 or 15 mins at 1.5 mL min^−1 at 40° C. with detection by UV absorption at 210 nm. Manual integration (AUC) allows estimation of remaining intact peptide over the time course of the experiment.

[5] = tested on: recombinant α-chymotrypsin; experiment: as above; conditions: t = 0; 37° C., pH 7.8
Method: as §3, §4, §5

[6] = Proteolytic resistance to fasted-state simulated intestinal fluid (FASSIF/Pancreatin); type: in vitro ADME; conditions: 37° C., read-out: Percentage remaining intact peptide (AUC by RP-HPLC) upon incubation with fasted-state simulated intestinal fluid (FASSIF/P); for remaining at 5 min, […]: t = 5 m; for remaining at 10 min, […]: t = 10 m; for remaining at 0.25 h, […]: t = 15 m; for remaining at 0.5 h, […]: t = 30 m; for remaining at 1 h, […]: t = 1 h; for remaining at 2 h, […]: t = 2 h
Method: (§1) A fresh suspension of FASSIF/P (Fasted-State Simulated Intestinal Fluid+USP Pancreatin®) was prepared according to that described by Galia, Nicolaides, Hörter, Lobenberg, Reppas and Dressman: Pharm. Res. 15 (1998) 698-705. The resulting preparation is proteolytically equivalent to ˜375 units/mL (375 kU/L) and was used immediately without storage. Peptides for evaluation (1.0 mg, ˜250 nmoles) were initially dissolved in pre-warmed FASSIF without Pancreatin® (200 μL) to which was added pre-warmed fresh FASSIF/Pancreatin® (100 μL) to initiate potential digestion. Following momentary vortexing of the Eppendorf reaction tube the mixture was incubated at 37° C. in a thermostatic waterbath for the duration of the experiment. 25 μL aliquots of the co-incubated peptide-enzyme mixture were periodically withdrawn (t=0, 5 m, 10 m, 15 m, 30 m, 1 h, 2 h) and quenched immediately by addition to a solution of 10% TFA in 1:1 water/acetonitrile (75 μL) to arrest proteolytic activity.

[7] = tested on: FASSIF/P (Fasted-State Simulated Intestinal Fluid+USP Pancreatin®); experiment: as above; type: in vitro ADME; conditions: t = 0; 37° C.
Method: as §1

[8] = molecular target: T3, human glucose-dependent insulinotropic peptide receptor (GIPR) (Homo sapiens, UniProt P48546); experiment: cAMP assay, human GIPR cells; type: cell-based; conditions: Table 9, bis-lipidated peptides
T3 construct: expressed in transfected cells; host or cells: HEK293 cells or CHO cells
T3 sequence (P48546 22-466): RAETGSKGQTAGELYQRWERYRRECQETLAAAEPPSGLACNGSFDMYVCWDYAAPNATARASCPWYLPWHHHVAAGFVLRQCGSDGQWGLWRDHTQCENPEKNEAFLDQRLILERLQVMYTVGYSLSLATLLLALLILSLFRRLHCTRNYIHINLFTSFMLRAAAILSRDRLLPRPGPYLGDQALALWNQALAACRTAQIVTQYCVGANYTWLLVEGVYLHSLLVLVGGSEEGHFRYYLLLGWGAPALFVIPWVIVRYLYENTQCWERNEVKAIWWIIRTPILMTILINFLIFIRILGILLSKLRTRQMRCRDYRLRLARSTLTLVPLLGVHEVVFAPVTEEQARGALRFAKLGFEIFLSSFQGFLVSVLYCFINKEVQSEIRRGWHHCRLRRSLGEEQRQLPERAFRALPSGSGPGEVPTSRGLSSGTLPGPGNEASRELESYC
Outline: (§2)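 Peptide-stimulated cAMP measured by two-step HTRF after a 30 min room-temperature incubation with receptor-expressing cells (hGLP-1R, hGIPR at 1×10^5 cells/ml; hGCGR at 2×10^5 cells/ml). Duplicate dilutions; EC50 from 4-parameter logistic fit of % Delta F.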

[9] = molecular target: T4, human glucagon receptor (GCGR) (Homo sapiens, UniProt P47871); experiment: cAMP assay, human GCGR cells; type: cell-based; conditions: Table 9, bis-lipidated peptides
T4 construct: expressed in transfected cells; host or cells: HEK293 cells or CHO cells
Outline: as §2

[10] = molecular target: T5, human GLP-1 receptor (GLP-1R) (Homo sapiens, UniProt P43220); experiment: cAMP assay, human GLP-1R cells; type: cell-based; conditions: Table 9, bis-lipidated peptides
T5 construct: expressed in transfected cells; host or cells: HEK293 cells or CHO cells
Outline: as §2

T5 sequence (P43220 24-463): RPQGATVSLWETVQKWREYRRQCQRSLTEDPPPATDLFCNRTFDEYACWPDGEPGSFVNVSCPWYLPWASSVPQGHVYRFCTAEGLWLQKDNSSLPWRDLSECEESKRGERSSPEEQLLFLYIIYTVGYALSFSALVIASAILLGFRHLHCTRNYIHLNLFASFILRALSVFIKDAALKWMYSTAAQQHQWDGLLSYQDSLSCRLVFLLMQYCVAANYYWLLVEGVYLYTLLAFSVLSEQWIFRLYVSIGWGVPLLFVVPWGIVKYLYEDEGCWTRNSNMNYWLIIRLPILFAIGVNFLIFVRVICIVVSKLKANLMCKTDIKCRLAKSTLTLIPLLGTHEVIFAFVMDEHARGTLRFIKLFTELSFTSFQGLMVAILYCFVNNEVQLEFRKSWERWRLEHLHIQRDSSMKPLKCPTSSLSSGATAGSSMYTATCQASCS
T1 sequence (P08473 whole entry): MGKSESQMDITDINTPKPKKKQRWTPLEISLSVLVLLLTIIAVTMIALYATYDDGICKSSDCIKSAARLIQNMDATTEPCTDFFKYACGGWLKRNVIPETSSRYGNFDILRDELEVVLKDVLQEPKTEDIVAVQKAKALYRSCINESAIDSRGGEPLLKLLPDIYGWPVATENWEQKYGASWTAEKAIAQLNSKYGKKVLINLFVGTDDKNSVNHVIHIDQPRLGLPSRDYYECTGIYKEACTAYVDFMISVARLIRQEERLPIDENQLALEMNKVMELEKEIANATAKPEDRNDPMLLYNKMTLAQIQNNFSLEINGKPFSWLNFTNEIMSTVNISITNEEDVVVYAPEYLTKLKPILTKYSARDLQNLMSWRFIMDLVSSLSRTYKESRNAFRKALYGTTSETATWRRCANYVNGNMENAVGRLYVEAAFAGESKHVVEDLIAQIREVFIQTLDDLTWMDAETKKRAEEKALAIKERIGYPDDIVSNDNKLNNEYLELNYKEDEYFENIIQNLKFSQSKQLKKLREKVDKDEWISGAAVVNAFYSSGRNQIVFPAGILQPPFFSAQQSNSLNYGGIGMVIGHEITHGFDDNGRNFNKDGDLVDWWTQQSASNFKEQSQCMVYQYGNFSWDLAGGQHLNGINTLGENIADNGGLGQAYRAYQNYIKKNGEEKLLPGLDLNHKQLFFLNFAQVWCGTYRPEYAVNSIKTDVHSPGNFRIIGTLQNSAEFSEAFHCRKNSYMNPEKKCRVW
porcine pancreatic trypsin, sequence (P00761 9-231): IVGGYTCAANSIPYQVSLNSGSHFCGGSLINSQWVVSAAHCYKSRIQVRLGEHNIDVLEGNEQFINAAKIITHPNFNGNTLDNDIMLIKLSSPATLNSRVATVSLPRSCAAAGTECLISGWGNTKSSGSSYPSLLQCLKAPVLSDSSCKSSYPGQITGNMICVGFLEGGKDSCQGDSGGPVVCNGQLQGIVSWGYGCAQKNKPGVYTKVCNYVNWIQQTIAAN
T2 sequence (P00791 60-385): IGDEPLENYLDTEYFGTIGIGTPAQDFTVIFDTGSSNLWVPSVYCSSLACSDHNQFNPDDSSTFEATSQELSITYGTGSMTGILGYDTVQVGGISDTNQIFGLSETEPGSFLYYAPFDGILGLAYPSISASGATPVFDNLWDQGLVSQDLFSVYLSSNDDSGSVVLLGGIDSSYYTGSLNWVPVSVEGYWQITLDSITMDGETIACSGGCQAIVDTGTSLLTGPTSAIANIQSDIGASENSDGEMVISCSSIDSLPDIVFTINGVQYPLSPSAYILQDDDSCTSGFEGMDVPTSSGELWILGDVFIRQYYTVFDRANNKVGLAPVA
T4 sequence (P47871 26-477): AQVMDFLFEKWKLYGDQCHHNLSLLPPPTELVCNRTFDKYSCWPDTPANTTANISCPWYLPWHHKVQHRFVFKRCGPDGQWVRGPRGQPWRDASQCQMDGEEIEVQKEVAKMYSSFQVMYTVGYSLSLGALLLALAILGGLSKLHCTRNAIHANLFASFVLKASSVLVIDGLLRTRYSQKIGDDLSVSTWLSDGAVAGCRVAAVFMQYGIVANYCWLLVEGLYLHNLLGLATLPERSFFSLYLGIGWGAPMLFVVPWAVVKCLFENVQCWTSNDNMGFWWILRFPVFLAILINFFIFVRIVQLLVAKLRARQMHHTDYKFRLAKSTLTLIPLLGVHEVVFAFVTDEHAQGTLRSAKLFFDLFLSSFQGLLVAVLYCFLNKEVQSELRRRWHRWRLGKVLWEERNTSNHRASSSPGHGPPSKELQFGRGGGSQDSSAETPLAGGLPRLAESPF

Percentage remaining peptide (AUC at specified time-point by RP-HPLC) upon incubation with neprilysin, t = 0 [1]	Percentage remaining intact peptide (AUC by RP-HPLC) upon incubation with trypsin [2]	Percentage remaining intact peptide (AUC by RP-HPLC) upon incubation with pepsin [3]	remaining at 0.5 h [4]	remaining at 1 h [4]	remaining at 2 h [4]	remaining at 4 h [4]	remaining at 8 h [4]	remaining at 24 h [4]	Percentage remaining intact peptide (AUC by RP-HPLC) upon incubation with α-chymotrypsin [5]	remaining at 5 min, […] [6]	remaining at 10 min, […] [6]	remaining at 0.25 h, […] [6]	remaining at 0.5 h, […] [6]	remaining at 1 h, […] [6]	remaining at 2 h, […] [6]	Percentage remaining intact peptide (AUC by RP-HPLC) upon incubation with fasted-state simulated intestinal fluid (FASSIF/P) [7]	Compound	also measured
100%	100%	100%	91.6%	87.2%	86.3%	86.6%	87.7%	82.1%	100%	–	–	–	–	–	–	–	CC[C@H](C)[C@H](NC(=O)[C@](C)(Cc1ccccc1)NC(=O)[C@H](CCC(=O)O)NC(=O)[C@](C)(CCCCN)NC(=O)[C@H](C)NC(=O)[C@H](C)NC(=O)[C@H](CCC(=O)O)NC(=O)CNC(=O)[C@H](CCC(=O)O)NC(=O)[C@H](CC(C)C)NC(=O)[C@](C)(Cc1ccccc1)NC(=O)[C@H](CO)NC(=O)[C@](C)(CO)NC(=O)[C@@H](NC(=O)[C@H](CC(=O)O)NC(=O)[C@H](CO)NC(=O)[C@@H](NC(=O)[C@](C)(Cc1ccccc1)NC(=O)[C@H](CO)NC(=O)CNC(=O)[C@H](CCC(=O)O)NC(=O)C(C)(C)NC(=O)[C@@H](N)Cc1c[nH]cn1)[C@@H](C)O)C(C)C)C(=O)N[C@@H](C)C(=O)N[C@@](C)(Cc1ccccc1)C(=O)N[C@H](C(=O)N[C@H](C(=O)N[C@@](C)(CCCCN)C(=O)NCC(=O)NCC(N)=O)C(C)C)C(C)C [compound 17]	–
100%	100.0%	100%	97.8%	94.6%	90.9%	88.8%	89.4%	86.4%	100%	–	–	–	–	–	–	–	CC[C@H](C)[C@H](NC(=O)[C@H](Cc1ccccc1)NC(=O)[C@H](CCC(=O)O)NC(=O)[C@H](CCCCNC(=O)COCCOCCNC(=O)COCCOCCNC(=O)CC[C@H](NC(=O)CCCCCCCCCCCCCCCCC(=O)O)C(=O)O)NC(=O)[C@H](C)NC(=O)[C@H](C)NC(=O)[C@H](CCC(=O)O)NC(=O)CNC(=O)[C@H](CCC(=O)O)NC(=O)[C@H](CC(C)C)NC(=O)[C@](C)(Cc1ccccc1)NC(=O)[C@H](CO)NC(=O)[C@](C)(CO)NC(=O)[C@@H](NC(=O)[C@H](CC(=O)O)NC(=O)[C@H](CO)NC(=O)[C@@H](NC(=O)[C@](C)(Cc1ccccc1)NC(=O)[C@H](CO)NC(=O)CNC(=O)[C@H](CCC(=O)O)NC(=O)C(C)(C)NC(=O)[C@@H](N)Cc1c[nH]cn1)[C@@H](C)O)C(C)C)C(=O)N[C@@H](C)C(=O)N[C@@](C)(Cc1ccccc1)C(=O)N[C@H](C(=O)N[C@H](C(=O)N[C@@](C)(CCCCN)C(=O)NCC(=O)NCC(N)=O)C(C)C)C(C)C [compound 48]	–
–	–	–	–	–	–	–	–	–	–	93.9%	85.7%	75.9%	56.1%	33.2%	7.7%	100%	CCCCCCCCCCCC(=O)N[C@@H](CCC(=O)NCCOCCOCC(=O)NCCOCCOCC(=O)NCCCC[C@H](NC(=O)[C@H](C)NC(=O)[C@@H](NC(=O)[C@H](Cc1ccc(OC)cc1)NC(=O)[C@H](CCC(=O)O)NC(=O)[C@](C)(CCCCN)NC(=O)[C@H](C)NC(=O)[C@H](C)NC(=O)[C@H](CCC(=O)O)NC(=O)CNC(=O)[C@H](CCC(=O)O)NC(=O)[C@H](CC(C)C)NC(=O)[C@H](CCCCNC(=O)COCCOCCNC(=O)COCCOCCNC(=O)CC[C@H](NC(=O)CCCCCCCCCCC)C(=O)O)NC(=O)[C@H](CO)NC(=O)[C@](C)(CO)NC(=O)[C@@H](NC(=O)[C@H](CC(=O)O)NC(=O)[C@H](CO)NC(=O)[C@@H](NC(=O)[C@](C)(Cc1ccccc1)NC(=O)[C@H](CO)NC(=O)CNC(=O)[C@H](CCC(=O)O)NC(=O)C(C)(C)NC(=O)[C@@H](N)Cc1c[nH]cn1)[C@@H](C)O)C(C)C)[C@@H](C)CC)C(=O)N[C@H](C(=O)N[C@H](C(=O)N[C@@H](CCC(=O)O)C(=O)NCC(=O)NCC(N)=O)C(C)C)C(C)C)C(=O)O [compound 406] (H-H[Aib]EGS[αMeF]TSDV[αMeS]SK([AEEA-AEEA-γGlu-Lauroyl])LEGEAA[αMeK]EY(Me)IAK([AEEA-AEEA-γGlu-Lauroyl])VVEGG-NH2; N-terminus assumed)	–
–	–	–	–	–	–	–	–	–	–	86.2%	72.9%	60.3%	36.3%	16.2%	2.1%	100%	CCCCCCCCCCCC(=O)N[C@@H](CCC(=O)NCCOCCOCC(=O)NCCOCCOCC(=O)NCCCC[C@H](NC(=O)[C@H](C)NC(=O)[C@@H](NC(=O)[C@H](CCCC)NC(=O)[C@H](CCC(=O)O)NC(=O)[C@](C)(CCCCN)NC(=O)[C@H](C)NC(=O)[C@H](C)NC(=O)[C@H](CCC(=O)O)NC(=O)CNC(=O)[C@H](CCC(=O)O)NC(=O)[C@H](CC(C)C)NC(=O)[C@H](CCCCNC(=O)COCCOCCNC(=O)COCCOCCNC(=O)CC[C@H](NC(=O)CCCCCCCCCCC)C(=O)O)NC(=O)[C@H](CO)NC(=O)[C@](C)(CO)NC(=O)[C@@H](NC(=O)[C@H](CC(=O)O)NC(=O)[C@H](CO)NC(=O)[C@@H](NC(=O)[C@](C)(Cc1ccccc1)NC(=O)[C@H](CO)NC(=O)CNC(=O)[C@H](CCC(=O)O)NC(=O)C(C)(C)NC(=O)[C@@H](N)Cc1c[nH]cn1)[C@@H](C)O)C(C)C)[C@@H](C)CC)C(=O)N[C@H](C(=O)N[C@H](C(=O)N[C@@H](CCC(=O)O)C(=O)NCC(=O)NCC(N)=O)C(C)C)C(C)C)C(=O)O [compound 407] (H-H[Aib]EGS[αMeF]TSDV[αMeS]SK([AEEA-AEEA-γGlu-Lauroyl])LEGEAA[αMeK]E[Nle]IAK([AEEA-AEEA-γGlu-Lauroyl])VVEGG-NH2; N-terminus assumed)	EC50 ([8]; first replicate, read-out: Primary assay EC50 GIP-R (n1)): ≥ 21.5 nM; EC50 ([8]; second replicate, read-out: Primary assay EC50 GIP-R (n2)): ≥ 21.5 nM; EC50 ([9]; first replicate, read-out: Primary assay EC50 Gluc-R (n1)): ≥ 21.5 nM; EC50 ([9]; second replicate, read-out: Primary assay EC50 Gluc-R (n2)): ≥ 21.5 nM; EC50 ([10]; mean of n1 and n2, read-out: Primary assay EC50 Mean pM GLP-1R): 2 pM; EC50 ([10]; replicate n2, read-out: Primary assay EC50 GLP-1R n2): 2.01 pM
